The subject of series [1] is C. albicans 475/15 biofilm formation. In words: Inhibition of biofilm formation (crystal violet). The format is cell-based, Candida albicans. As for the experimental part:
Potential of selected compounds to interfere with C. albicans 475/15 biofilm formation was investigated as previously described. Briefly, C. albicans 475/15 was incubated with serial dilution of the compounds (MIC and subMICs) in YPD medium, in 96-well microtiter plates with adhesive bottom (Sarstedt, Nümbrecht, Germany), at 37 °C for 24 h. After incubation, wells were washed twice with sterile PBS and methanol was added into each well. After fixation, methanol was discarded, and the plate was air dried. Formed biofilms were stained with 0.1% crystal violet (Bio-Merieux, Craponne, France) for 30 min. The plate was gently washed under the tap of water and air dried. The stain bound to the remaining biofilms was dissolved with ethanol (96%, Zorka, Šabac, Serbia). Absorbance was read on a Multiskan™ FC Microplate Photometer, Thermo Scientific™. The percentage of inhibition of biofilm formation was calculated by the formula:[(A620control − A620sample)/A620control] × 100

The subject of another series is ERG11. In words: Expression of ERG11 (qPCR). The format is cell-based, Candida albicans. The note with it: treatment with MIC. As for the experimental part:
Total RNA was isolated as described by Sanglard et al. with some modifications. C. albicans 475/15 was grown with agitation at 30 °C in YEPD until OD540 = 0.4. C. albicans cells were incubated with MIC of compounds in YEPD at 30 °C with agitation for 30 min. Cells were centrifuged (4600 rpm, 4 °C for 5 min (Rotanata 460 R, Hettich, Tuttlingen, Germany)) and the pellet was resuspended in 300 µL of RNA buffer (0.1 M Tris-HCl pH 7.5, 0.1M LiCl, 10mM EDTA, 0.5% SDS). The pellet was homogenized with 200 µL of DEPC treated glass beads and 300 µL of Phenol:Chloroform:Isoamyl Alcohol (Sigma-Aldrich, Darmstadt, Germany) in Precellys Evolution tissue homogenizer (Bertion instruments, Montigny-le-Bretonneux, France) at 4500 rpm for 5 s. After centrifugation (14,000 rpm, 4 °C, 1 min (Universal 32 R, Hettich, Tuttlingen, Germany)) 200 µL of supernatant was vortexed with 250 µL of Phenol:Chloroform:Isoamyl Alcohol for 10 s. Samples were centrifuged (14,000 rpm, 4 °C, 1 min) and 200 µL of supernatant was transferred to new tubes, 400 µL of ice-cold 99% ethanol was added to each tube, and they were kept on dry ice for 10 min. Samples were centrifuged (14,000 rpm, 4 °C, 2 min), pellet was washed with ethanol (70%), left to dry at room temperature, after which it was dissolved in 50 µL of DEPC treated water. Nanodrop (ND-1000, Witec AG, Sursee, Switzerland) was used for determination of concentration and purity of samples. RNA was stored at −80°C.
Amount of 10 µg RNA was incubated with 5 µL of DNAse buffer and 1 µL of DNAse at 37 °C for 30 min (DNA-free™ DNA Removal Kit, Ambion, Bleiswijk, Netherlands). After addition of DNAse inactivation reagent tubes were kept at room temperature with occasional vortexing for 5 min. Samples were centrifuged (14,000 rpm, 4°C, 2 min) and the concentration and quality of supernatant were analyzed on Nanodrop (ND-1000, Witec AG, Sursee, Switzerland).
Synthesis of cDNA was done with a Transcriptor High Fidelity cDNA synthesis kit (Roche). RNA (1 µg) was incubated with 60 µM random hexamer primers, in 11.4 µL of total sample volume, at 65 °C for 10 min. The mixture of Transcriptase reaction buffer 5×, Deoxynucleotide mix, DTT, Protector RNAse inhibitor, and Transcriptor High Fidelity Reverse Transcriptase was added to each tube according to manufacturer instructions. Synthesis of cDNA was completed by incubating the mixture at 50 °C for 30 min and 85 °C for 5 min (Peqstar thermocycler, Peqlab, Erlangen, Germany).
Wells of MicroAmp Fast 96-Well Reaction plate ((0.1 mL), Applied biosystems, Waltham, MA, USA) were incubated with 10 µL of mixture (cDNA, 2× MasterMix, primers, probe (Table 3), and water). Analysis was performed in StepOnePlus Real Time PCR system with relative standard curve method. Expression levels of CDR1 and ERG11 were normalized to expression of ACT1.
In general terms: Quantitative PCR measures a nucleic acid by following its amplification.

Series [2] deals with non-tumor colon cell (IEC-18). Details: method as in PMID 25359775. The note with it: up to 150 μM; cited from earlier work.
Another series has as its system S. aureus efflux. Details: method as in PMID 25961825. The settings on record: S. aureus; cited from earlier work.
A further series concerns CDR1. In words: Expression of CDR1 (qPCR). The settings on record: treatment with MIC. The format is cell-based, Candida albicans.
Another series relates to ALS1, ALS3, HWP1, SUN41. The settings on record: ref 18; cited from earlier work.
Series [3] relates to HUVE (human umbilical vein endothelial) cells. The note with it: read-out: LC50; cited from earlier work.
Series [4] relates to C. albicans morphological transition. The settings on record: cited from earlier work.

Molecules are shown by their SMILES. Converted amounts (≈) assume the structure as drawn. “Also recorded” adds a separate entry of the source. Where two headings read alike, the source gives them in different places.

Consider `O=c1c(O[C@@H]2O[C@H](CO)[C@@H](O)[C@H](O)[C@H]2O)c(-c2ccc(O)c(O)c2)oc2cc(O)cc(O)c12` [Isoquercitrin, isoquercitrin], for which the “antibiofilm activity” value in series [1] (MIC and subMICs) is reported as “excellent activity; also recorded: notably lowered”. Moreover, the “inhibition of biofilm formation” value in series [1] (compound applied at MIC) was 76%; in series [1] (compound applied at MIC/2) it was above 60%. Further, the “impact on ERG11 expression (words)” value was “increased expression levels” in the series on ERG11 and “upregulated; also recorded: increased ERG11 expression” in the series on ERG11 (listed as isoquercitrin). Moreover, the “ERG11 expression level, Log2FC” value in the series on ERG11 (30 min, normalized to ACT1) is given as above 1 Log2FC. In addition, the “cytotoxic effects” value in series [2] was “did not show cytotoxic effects”.

`O=c1c(O)c(-c2ccc(O)c(O)c2)oc2cc(O)cc(O)c12` [Quercetin, quercetin]: in the series on S. aureus efflux, the “IC50, efflux inhibition” value was 75 µg/mL (≈ 248 µM). Moreover, the “impact on CDR1 expression” value in the series with CDR1 was “did not exhibit any significant inhibitory potential”. In addition, the “ALS1, ALS3, HWP1 and SUN41 expression levels” value with ALS1, ALS3, HWP1, SUN41 is “reduced”. In series [3], the CC50 is 61 µM. The “concentration leading to reduction of morphological transition” value is on record as 64 µg/mL in series [4] (ref 18) and “up to 200 µg/mL” in series [4] (ref 28).
